Earlier results on three molecules are cited in patent US10624856B2, “Non-extractable oral solid dosage forms” (Dharma Laboratories LLC, priority 2018, dated 2020).

The conditions of series [1]: in vivo.

Consider `Oc1ccc2c3c1O[C@H]1[C@H](O)CC[C@@]4(O)[C@@H](C2)N(CC2CC2)CC[C@]314` [6-beta-naltrexol], for which the half-life in series [1] was 16 h. For `O=C1CC[C@@]2(O)[C@H]3Cc4ccc(O)c5c4[C@@]2(CCN3CC2CC2)[C@H]1O5` [Naltrexone], the Plasma protein binding is 21%. On to `C=CCN1CC[C@]23c4c5ccc(O)c4O[C@H]2C(=O)CC[C@@]3(O)[C@H]1C5` [Naloxone], for which, in series [1] (po), the “oral bioavailability (in words)” value is “low”.
